Measurements from PMC4298801, “Structure-Guided Design Affirms Inhibitors of Hepatitis C Virus p7 as a Viable Class of Antivirals Targeting Virion Release” (Hepatology (Baltimore, Md.), 2013).
Read-outs that look alike come from different tables or passages of the source.

How the values were obtained:
[1] = test system: J4/JFH-1 (GT1b/2a HCV); experiment: Inhibition of infectious virus release from Huh7 cells transfected with J4/JFH-1 RNA (focus forming assay); format: cell-based, hepatitis C virus
Experimental: (§1) Figure 4 Selection of novel, structurally diverse p7 inhibitors. In silico screening using p7 channel models as a template derived a range of Lipinski-compliant potential inhibitors of the p7 channel complex and the top 30 were selected for testing as proof-of-principle. (A) Liposome dye release assay showing endpoint values compounds with activity against wild-type p7 at 250 nM that were subsequently selected for cell culture studies. Results are the average of two separate experiments with each condition in duplicate and are expressed as a percentage of the untreated protein value following baseline subtraction (liposomes alone). […] (B) Inhibition of infectious virus release from Huh7 cells transfected with J4/JFH-1 RNA using novel compounds (400 nM). Selected compounds show minimal effect on intracellular infectivity, replicon replication and have no toxic effects (see Supporting Fig. 5 and Table 2). […] (C) Structures of selected initial hit compounds. (D) Predicted docking poses of rimantadine novel compounds at the allosteric binding site (calculated in Glide, Schrodinger). Key interacting residues are highlighted.
Figure 6 Effects of novel inhibitors against multiple HCV genotypes. […] Results are representative of two independent experiments and are the average of triplicate wells. Error bars represent standard deviations. […]

[2] = target: T1, genotype 1b p7 (Hepatitis C virus genotype 1b, UniProt O92972); experiment: Liposome carboxyfluorescein dye release assay for p7 channel activity; format: biochemical; conditions: genotype 1b p7 in vitro, prototype control, read-out: median inhibitory concentration [IC50]
T1 construct: selected for testing against genotype 1b p7 in vitro; made in house; host or cells: Escherichia coli BL21(DE3)
Experimental: Liposome carboxyfluorescein release assays were conducted as described previously.[13],[15],[28]
as §1

[3] = test system: Leu20Phe J4/JFH-1; experiment: HCV spread following infection at low M.O.I., NS5A foci counted; format: cell-based, hepatitis C virus; conditions: low multiplicity infection
Excerpt: Figure 5 Specificity of novel p7 inhibitors. Screening lead hits LDS19 and 21 were examined for specificity against wild-type and rimantadine resistant HCV. (A) Titration of LDS 19 and 21 against Huh7 cells transfected with both wild-type (diamonds) and Leu20Phe (squares) J4/JFH-1 RNA, showing effects on released infectivity. Graph plots the average released titers from duplicate wells from at least two separate experiments, normalized to the 100% untreated value. Error bars represent normalized percent error of the mean between experiments (*P < 0.05). (B) Effects of p7 inhibitors on HCV spread following infection at low M.O.I (0.0001 FFU/cell). Huh7 cells were infected in triplicate overnight with wild-type (black) and Leu20Phe (white) J4/JFH-1 and then media replaced after extensive washing with that containing inhibitors. Fluorescent NS5A foci were counted at 72 hours postinfection. […] Error bars represent normalized percent error of the mean (*P < 0.05, **P < 0.01). […] Results are the average of two separate experiments with duplicate wells and error bars are normalized percent error of the mean between experiments.

[4] = test system: J4/JFH-1(L20F); conditions: subcytotoxic concentrations; cited from earlier work

T1 sequence (O92972 747-809): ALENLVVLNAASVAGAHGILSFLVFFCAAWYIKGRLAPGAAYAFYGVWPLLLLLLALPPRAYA

SMILES	IC50 ([1]; J4/JFH-1 RNA transfected Huh7, prototype shown for comparison, read-out: ∼IC50, infectious virus release) [µM]	IC50 ([1]; Hepatitis C virus, GT1B, Huh-7, read-out: ∼IC50, infectious virus release) [µM]	IC50 [2] [µM]	sensitivity of Leu20Phe HCV spread to compound [3]	effect on Leu20Phe infectious virion production [4]
CCCCCCCCCN1C[C@H](O)[C@@H](O)[C@H](O)[C@H]1CO [NN-DNJ]	~20				
CC(N)C12CC3CC(CC(C3)C1)C2 (centres unmarked) [rimantadine]		~40	~40	insensitive	ineffective
